Results from the NIST ThermoML archive (doi:10.1021/acs.jced.5b00503).

What was measured:
[1] = 101 kPa, Liquid, Falling or rolling sphere viscometry
[2] = xn = mol fraction of the nth substance listed; conditions: 101 kPa, Liquid, Falling or rolling sphere viscometry

CCCCCC[n+]1ccn(C)c1.O=S(=O)([N-]S(=O)(=O)C(F)(F)F)C(F)(F)F
[1]
Conditions | viscosity [mPa·s]
288.2 K | 117.8
298.2 K | 70.4
308.2 K | 45.4
318.2 K | 31.23

CCCCCC[n+]1ccn(C)c1.O=S(=O)([N-]S(=O)(=O)C(F)(F)F)C(F)(F)F + ClC(Cl)Cl
viscosity [mPa·s], [2]
Conditions | 288.2 K | 298.2 K | 308.2 K | 318.2 K
x1 = 0.074 | 1.701 | 1.462 | 1.265 | 1.104
x1 = 0.186 | 4.556 | 3.667 | 3.002 | 2.5
x1 = 0.266 | 8.57 | 6.63 | 5.25 | 4.29
x1 = 0.418 | 20.36 | 14.63 | 10.96 | 8.5
x1 = 0.511 | 30.16 | 20.92 | 15.19 | 11.49
x1 = 0.565 | 38 | 25.55 | 18.18 | 13.58
x1 = 0.651 | 50.6 | 33.3 | 23.1 | 16.97
x1 = 0.707 | 60.6 | 38.9 | 26.6 | 19.16
x1 = 0.805 | 78.4 | 49.6 | 33.7 | 24
x1 = 0.906 | 95.7 | 59.1 | 39.5 | 27.7
x1 = 1 | 117.8 | 70.4 | 45.4 | 31.23
